Test results: patent publication US11873298B2, “Compounds and uses thereof” (JANSSEN PHARMACEUTICA NV, priority 2017, dated 2024)
pIC50: −log10 of the molar value.

These compounds were tested against T1, SCD5 (Homo sapiens, UniProt Q86SK9) (assay: Growth inhibition of humanized yeast strain expressing SCD5 as sole desaturase). Settings: humanized yeast strain expressing SCD5.
T1 construct: host or cells: S. cerevisiae ole1Δ strain (W303 pdr1Δ pdr3Δ background), plasmid pRS316 with TDH3 promoter and CYC1 terminator
T1 sequence (Q86SK9 1-330): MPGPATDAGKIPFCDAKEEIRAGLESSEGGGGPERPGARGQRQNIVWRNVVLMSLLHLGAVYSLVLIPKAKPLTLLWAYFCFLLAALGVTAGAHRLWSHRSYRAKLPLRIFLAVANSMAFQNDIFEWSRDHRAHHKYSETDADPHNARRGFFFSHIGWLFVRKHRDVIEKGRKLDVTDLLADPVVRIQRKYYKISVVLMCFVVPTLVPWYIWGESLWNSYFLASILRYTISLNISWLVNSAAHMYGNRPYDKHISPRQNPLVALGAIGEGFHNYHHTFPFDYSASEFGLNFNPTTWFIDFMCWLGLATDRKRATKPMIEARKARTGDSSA
Format: cell-based
Description: Strain oleΔ (yeast ole1 deletion mutant) was constructed by deleting OLE1 with NAT-MX6 in BY4741, amplifying the deletion cassette from the genomic DNA of the resulting strain with primers flanking the ORF by 1000 bp upstream and downstream, transforming the resulting deletion cassette into W303 pdr1Δ pdr3Δ, and plating transformants on YPD media containing G418 (200 μg/mL) and nourseothricin ([…]) with 0.01% TWEEN®-20 and 0.5 mM oleic and palmitoleic acids.
The coding sequence of yeast OLE1 was also cloned into this plasmid). These clones were then transformed into the ole1Δ strain and plated on CSM-Ura media (CSM lacking uracil) with 2% glucose (w/v) and independent colonies were isolated and amplified.
All compound profiling experiments were performed using the same basic protocol. Different genetic backgrounds (e.g., gene deletions) or conditions (e.g., addition of oleic and palmitoleic acid) were replaced as indicated below.
Yeast were cultured using standard techniques in complete synthetic media (CSM) and yeast nitrogen base supplemented with 2% (w/v) carbon source (glucose, raffinose, or galactose) to regulate the expression of the toxic disease protein. An initial starter culture was inoculated in 3 mL CSM-Glucose media and incubated overnight in a 30° C. shaker incubator (225 rpm). Saturated morning cultures were then diluted 1:20 in fresh CSM-Raffinose media and grown for 6 h to an OD600 (optical density) of ˜0.4-0.8 at 30° C. with shaking.
Compound administration was performed in two separate steps. First, 15 μL of CSM-Galactose (induces expression of toxic protein) was dispensed into clear 384 well assay plates using a MULTIDROP™ Combi reagent dispenser. […] The cultures described above were then diluted to a 2× concentration (0.03 and 0.08 for alpha-synuclein and ApoE, final ODsoo of 0.015 and 0.04) in CSM-Galactose. For wild-type and Ole1/SCD1/SCD5 plasmid-containing strains, the 2× cell density was 0.02. […] For 96-well assays (FIGS. 1A and 1B), compound dilutions in DMSO were generated in 96 well plates and 1 μL was manually pipetted into 96 well clear bottom assay plates.
For experiments using a plasmid-borne copy of Ole1, SCD1, or SCD5 (FIGS. 3B, 6, and 7), media lacking uracil (SX-Ura, where X is glucose, raffinose, or galactose), was used for all steps of the compound profiling protocol to ensure its maintenance throughout the assay.
After yeast delivery, assay plates were incubated under humidified conditions at 30° C. for 24 to 40 h. ApoE4 rescue experiments were stopped at 24 h, aSyn experiments at 40 h, Ole1 at 24 h, and SCD1/SCD5 at 40 h. The growth of yeast was monitored by reading the ODsoo of each well using a microplate reader (Perkin Elmer EnVision™).

| SMILES | pIC50 |
| --- | --- |
| Cc1noc2cc(-c3noc(C4CCN(C(=O)CC5(C)CC5)CC4)n3)ccc12 [Compound 591] | < 4.35 |
| CC(C)n1ncc2ccc(-c3noc(N4C[C@@H]5CNC[C@H]5C4)n3)cc21 [Compound 530] | < 4.35 |
| CC(C)n1ncc2ccc(-c3noc(C4CCN(S(=O)(=O)c5ccccc5Cl)CC4)n3)cc21 [Compound 540] | < 4.35 |
| CC(C)n1ncc2ccc(-c3noc([C@H]4CC[C@H](N)CC4)n3)cc21 [Compound 596] | < 4.35 |
| CC(C)n1ncc2ccc(-c3noc(C4CCN(C(=O)c5ccsn5)CC4)n3)cc21 [Compound 588] | 5.73 |
| CC(=O)N1CCC2(CC1)CN(c1nc(-c3ccc4cnn(C(C)C)c4c3)no1)C2 [Compound 571] | < 4.35 |
| CC(C)n1ncc2ccc(-c3noc(N4C[C@@H]5CN(C(=O)CC(C)(C)C)C[C@H]5C4)n3)cc21 [Compound 569] | < 4.35 |
| Cn1ncc2ccc(-c3noc(N4CCN(C(=O)OC(C)(C)C)CC4)n3)cc21 [Compound 545] | 4.72 |
| Cc1nn(C)c2cc(-c3noc(C4CCN(C(=O)CC5COC5)CC4)n3)ccc12 [Compound 592] | < 4.35 |
| CCc1cnc(N2CCC(c3nc(-c4ccc5c(C)nn(C)c5c4)no3)CC2)cn1 [Compound 560] | < 4.35 |
| COC(=O)N1C[C@H]2CN(c3nc(-c4ccc5cnn(C(C)C)c5c4)no3)C[C@@H]2C1 [Compound 568] | < 4.35 |
| COc1ccc(S(=O)(=O)N2CCC(c3nc(-c4ccc5cnn(C(C)C)c5c4)no3)CC2)c(Br)c1 [Compound 539] | < 4.35 |
| CC(C)n1ncc2ccc(-c3nc(N4CCN(C(=O)c5ccccc5)CC4)no3)cc21 [Compound 582] | 6.75 |
| CC(C)n1ncc2ccc(-c3nc(C4CCN(C(=O)c5ccccn5)CC4)no3)cc21 [Compound 499] | 5.96 |
| CC(C)n1ncc2ccc(-c3noc(C4CCN(C(=O)c5ncccc5Cl)CC4)n3)cc21 [Compound 587] | 5.31 |
| N#Cc1cccc(N2C[C@H](C(=O)N3CCC(c4nc(-c5ccc6cnn(C7COC7)c6c5)no4)CC3)CC2=O)c1 [Compound 600] | < 4.35 |
| CC(C)n1ncc2ccc(-c3nc(N4CCN(C(=O)OC(C)(C)C)CC4)no3)cc21 [Compound 548] | 8.00 |
| N#Cc1cccc(N2C[C@@H](C(=O)N3CCC(c4nc(-c5ccc6cnn(C7COC7)c6c5)no4)CC3)CC2=O)c1 [Compound 599] | < 4.35 |
| O=C(CC1CC1)N1CCC(c2nc(-c3ccc4cnn(C5COC5)c4c3)no2)CC1 [Compound 558] | 5.97 |
| CC(C)n1ncc2ccc(-c3noc(C4CCN(C(=O)c5ccc(Cl)cn5)CC4)n3)cc21 [Compound 586] | 5.42 |
| Cc1nn(C)c2cc(-c3nsc(C4CCN(C(=O)OC(C)(C)C)CC4)n3)ccc12 [Compound 503] | 6.50 |
| CC(C)n1ncc2ccc(-c3nc(C4CCN(C(=O)c5ccc(Cl)cc5)CC4)no3)cc21 [Compound 505] | 6.17 |
| COC(=O)N[C@H]1CC[C@@H](c2nc(-c3ccc4c(C)nn(C)c4c3)no2)CC1 [Compound 550] | < 4.35 |
| CC(C)n1ncc2ccc(-c3noc([C@@H]4[C@@H]5CN(C(=O)OC(C)(C)C)C[C@@H]54)n3)cc21 [Compound 498] | < 4.35 |
| CC(C)n1ncc2ccc(-c3noc(C4CCN(C(=O)CNC(=O)c5cccc(C#N)c5)CC4)n3)cc21 [Compound 556] | < 4.35 |
| CC(C)n1ncc2ccc(N3CC4(CCN(C(=O)c5ccccc5Cl)CC4)C3)cc21 [Compound 534] | 4.43 |
| CC(C)n1ncc2ccc(-c3noc(C4CCN(C(=O)c5ccc(Cl)c(F)c5)CC4)n3)cc21 [Compound 541] | < 4.35 |

Same assay, conditions: yeast strain expressing human SCD5 as sole desaturase; Table 8

| SMILES | pIC50 |
| --- | --- |
| O=C(C1CCC1)N1CCC(c2noc(-c3ccnc(O[C@@H]4CCOC4)c3)n2)CC1 [Compound 1269] | 6.23 |
| CC1(OC(=O)N2CCC(c3noc(-c4ccnc(-c5ccon5)c4)n3)CC2)CC1 [Compound 1306] | 5.27 |
| O=C(C1CCC1)N1CCC(c2noc(-c3ccnc(N4CCC(F)(F)C4)c3)n2)CC1 [Compound 1246] | 6.40 |
| O=C(C1CC1)N1CCC(c2cc(-c3cc4c(cn3)cnn4C3COC3)on2)CC1 [Compound 1236] | 6.70 |
| O=C(C1CC1)N1CCC(c2noc(-c3ccc(F)c(N4CCOCC4)c3)n2)CC1 [Compound 1259] | 7.40 |
| CC1(OC(=O)N2CCC(c3noc(-c4ccc(C5CCOC5)nc4)n3)CC2)CC1 (stereo not drawn) [Compound 1268] | 4.49 |
| CCC(=O)N1CCC(c2noc(-c3cc(C4CCOC4)ccn3)n2)CC1 (stereo not drawn) [Compound 1281] | 5.16 |
| COC(=O)C(O)Cn1ncc2ccc(-c3nc(C4CCN(C(=O)OC(C)(C)C)CC4)no3)cc21 (stereo not drawn) [Compound 1244] | 6.12 |
| CCC(=O)N1CCC(c2noc(-c3cc(N4CCC(F)(F)C4)c(F)cn3)n2)CC1 [Compound 1311] | 5.11 |
| CC(C)(C)OC(=O)N1CCC(c2noc(-c3ccc(OC4COC4)nc3)n2)CC1 [Compound 1249] | 5.31 |
| O=C(N1CCC(c2noc(-c3cc(C4CCOC4)ncc3F)n2)CC1)C1(F)CCC1 (stereo not drawn) [Compound 1275] | 7.70 |
| CC(C)(C)OC(=O)N1CCC(c2noc(-c3ccnc(N4CCC(F)(F)C4)c3)n2)CC1 [Compound 1200] | 6.68 |
| CC(C)(C)OC(=O)N1CCC(c2cc(-c3cnc4cnn(C5COC5)c4c3)on2)CC1 [Compound 1225] | 6.92 |
| CC(C)(C)OC(=O)N1CCC(c2noc(-c3cc(C4CCOC4)ncc3F)n2)CC1 (stereo not drawn) [Compound 1267] | 5.58 |
| CC1(OC(=O)N2CCC(c3noc(-c4cc(C5CCOC5)ccn4)n3)CC2)CC1 (stereo not drawn) [Compound 1205] | 6.48 |
| COC(=O)N1CCC(c2noc(-c3cnnc(C4CCOC4)c3)n2)CC1 (stereo not drawn) [Compound 1250] | 5.00 |
| Cn1cnc(-c2cc(-c3nc(C4CCN(C(=O)OC(C)(C)C)CC4)no3)ccn2)c1 [Compound 1294] | 6.72 |

| SMILES | pIC50 |
| --- | --- |
| CCS(=O)(=O)N1CCC(c2noc(-c3ccc4cnn(C5COC5)c4c3)n2)CC1 [Compound 1216] | 6.48 |
| CC(C)(C)OC(=O)N1CCC(c2noc(-c3cc(N4CCC(F)(F)C4)ccn3)n2)CC1 [Compound 1286] | 5.37 |
| O=C(OC1CCC1)N1CCC(c2noc(-c3ccc(=O)n(C4COC4)c3)n2)CC1 [Compound 1309] | 5.99 |
| CCC(=O)N1CCC(c2noc(-c3ccnc(N4CCC(F)(F)C4)c3)n2)CC1 [Compound 1248] | 5.16 |
| O=C(C1CC1)N1CCC(c2noc(-c3cc(C4CCOC4)c(F)cn3)n2)CC1 (stereo not drawn) [Compound 1296] | 6.60 |
| CC1(OC(=O)N2CCC(c3noc(-c4ccnc(-c5cocn5)c4)n3)CC2)CC1 [Compound 1310] | 6.33 |
| CC1CN(c2cc(-c3nc(C4CCN(C(=O)C(C)C)CC4)no3)ccc2F)CC(C)O1 (stereo not drawn) [Compound 1305] | 5.27 |
| CC(C)(C)OC(=O)N1CCC(c2noc(-c3ccc(C#N)c(N4CCOCC4)c3)n2)CC1 [Compound 1290] | 6.28 |
| CC(C)C(=O)N1CCC(c2noc(-c3cncc(C4CCOC4)c3)n2)CC1 (stereo not drawn) [Compound 1199] | 5.42 |
| CC1(OC(=O)N2CCC(c3noc(-c4ccnc(-c5cnoc5)c4)n3)CC2)CC1 [Compound 1220] | 7.00 |
| CC(C)S(=O)(=O)N1CCC(c2noc(-c3ccc4cnn(C5COC5)c4c3)n2)CC1 [Compound 1218] | 6.80 |
| CC1(OC(=O)N2CCC(c3noc(-c4cncc(N5CCC(F)(F)C5)c4)n3)CC2)CC1 [Compound 1198] | 5.76 |
| CC1(C(=O)N2CCC(c3noc(-c4cncc(C5CCOC5)c4)n3)CC2)CCC1 (stereo not drawn) [Compound 1270] | 6.40 |
| O=C(C1CCC1)N1CCC(c2noc(-c3cc(C4CCOC4)ccn3)n2)CC1 (stereo not drawn) [Compound 1285] | 6.05 |
| O=C(C1CC1)N1CCC(c2noc(-c3ccnc(O[C@@H]4CCOC4)c3)n2)CC1 [Compound 1255] | 5.73 |
| CCC(=O)N1CCC(c2noc(-c3cc(N4CCOCC4)c(F)cn3)n2)CC1 [Compound 1276] | 5.33 |
